Laboratory results as given in article PMC5841658, “Anti-cancer characteristics and ototoxicity of platinum(II) amine complexes with only one leaving ligand” (PLoS ONE, 2018).
Several values for one entry are separate records, joined by “and”; a condition that tells them apart may be missing. Equal values may be shown once.

Key:
[1] = tested on: zebrafish utricle hair cells; experiment: Hair cell quantification, utricle; assay type: in vivo, Danio rerio; conditions: extrastriolar (E1-E3) and striolar (S1-S3) regions, 25 mg/kg i.p., 48 hours
Source text: Zebrafish (Danio rerio) were purchased from a commercial supplier (Segrest Farms, Gibsonton, FL) and maintained in the animal facility of Western Kentucky University according to a protocol approved by the Institutional Animal Care and Use Committee. All zebrafish used in this study were a mix of male and female adult animals at least 6 months of age and were maintained according to standard methods.
Zebrafish were sedated with tricaine methanesulfonate (MS-222, Argent, Redmond, WA), weighed, and then intraperitoneally microinjected with 25 mg/kg body weight of platinum test compound or an equivalent volume of vehicle (0.9% NaCl) control using a 35 gauge syringe operated by a Micro4 microsyringe pump controller (World Precision Instruments, Sarasota, FL). After injection, fish were returned to holding tanks for either 24 or 48 hours and then subjected to hearing tests followed by hair cell quantification analysis. […]
GraphPad Prism v6 (La Jolla, CA) was used for all statistical analysis. Nuclear fraction platinum uptake as a total percent of combined nuclear and cytosolic uptake was analyzed using a one-way ANOVA (Brown-Forsyth test; p ≤ 0.05). IC50 values were calculated in Prism using the sigmoidal, 4PL, x is log(concentration) analysis feature or were calculated from Prism derived values using the equation y = mx + b. […]

[2] = tested on: A549 lung cancer cell line; experiment: MTT cellular viability assay, A549; assay type: cell-based; conditions: 72 hours, ± standard deviation
Method: Cell lines were obtained from American Type Culture Collection (ATCC, Manassas, VA). […] Caco-2 (ATCC: HTB-37) colorectal cancer was grown in EMEM with 20% FBS and 1% penicillin/streptomycin. All cell lines were incubated at 37°C in 5% CO2 with passaging every 4–7 days. Cell culture media and supplements were obtained from ATCC, Atlanta Biologicals (Flowery Branch, GA), Mediatech (Tewksbury, MA), Fisher Scientific (Waltham, MA), Gibco (Gaithersburg, MD) and Sigma-Aldrich.
The MTT (3-(4,5-dimethylthiazol-2-yl)-2,5-diphenyltetrazolium bromide) cellular viability assay was performed in all three cancer cell lines and the non-cancer cell line. Following a protocol adapted from, cells were seeded at 5,000 cells per well in 96-well plates and incubated at 37°C in 5% CO2 in F-12K Medium or EMEM with FBS supplementation and 1% penicillin/streptomycin for 24 hours. Then, wells were treated in replicates of six according to a concentration series (500, 50, 5, 0.5, 0.05 μM) of specific platinum complexes for 72 hours. A negative control (media only), positive control (Triton X-100) and series of blanks were simultaneously performed. The MTT assay was run for 2 hours, then well contents were rapidly evacuated out and all wells were treated with MTT solubilization solution [10% Triton X-100 in acidic (0.1N HCl) isopropanol] for 15 minutes before the plates were read using a BioTek Synergy HT microplate plate reader (570 nm and 690 nm absorbance wavelengths). Reagents, cell culture media and supplements were obtained from ATCC, Atlanta Biologicals, Mediatech, Fisher Scientific, Gibco and Sigma-Aldrich.
GraphPad Prism v6 (La Jolla, CA) was used for all statistical analysis. Nuclear fraction platinum uptake as a total percent of combined nuclear and cytosolic uptake was analyzed using a one-way ANOVA (Brown-Forsyth test; p ≤ 0.05). IC50 values were calculated in Prism using the sigmoidal, 4PL, x is log(concentration) analysis feature or were calculated from Prism derived values using the equation y = mx + b. MTT assay standard deviation values were calculated using ED50plus v1.0 online software. AEP threshold data were analyzed by two-way ANOVA (Dunnett’s multiple comparisons test; p ≤ 0.05) and hair cell quantification data by two-way ANOVA (Tukey’s multiple comparisons test; p ≤ 0.05). AEP temporary threshold shifts (TTS) were calculated by subtracting the mean vehicle threshold for each frequency from each treatment threshold. TTS data were averaged across frequencies for each treatment and were analyzed by one-way ANOVA (Tukey’s multiple comparisons test; p ≤ 0.05).

[3] = tested on: 5'-GMP; experiment: Kinetic 5'-GMP assay (1H NMR, rate of reaction of platinum complex with 5'-GMP); assay type: biochemical; conditions: D2O, pH 7, 25°C; for Rate constant for the reaction of 5'-GMP with the platinum(II) complex: excess platinum, fitted first order in each reactant
Method: The reaction of each platinum compound with 5'-GMP (Acros) was monitored using ^1H NMR spectroscopy to observe the disappearance of the H8 signal of the unreacted 5'-GMP at ≈8 ppm and the appearance of a product signal ≈0.5–1.0 ppm downfield of the unreacted 5'-GMP. The reaction was conducted with excess platinum compound present in each case. A 10 mM solution of 5'-GMP and a 10–20 mM solution of the platinum(II) compound were prepared separately in D2O. The pH (uncorrected for the effects of deuterium) of each solution was adjusted to 7, and the samples were equilibrated to 25°C in a water bath. Aliquots of the two solutions were combined and placed in an NMR tube; typically, the final concentrations of platinum was 5–18 mM and the concentration of 5'-GMP was 1 mM (except for the [Pt(dien)Cl]^+ reaction, where it was 0.5 mM). Samples were maintained at 25°C throughout the NMR experiment. The H8 resonances were integrated and the data was fitted to an equation that was first order in each reactant using DynaFit to determine rate constants. At least two runs were conducted for each platinum compound using fresh samples.

[4] = tested on: A549, Caco2, HTB16 and IMR90 cell lines; experiment: MTT cellular viability assay, comparison over all cell lines; assay type: cell-based; conditions: in our cell lines (Table 2)
Method: Cell lines were obtained from American Type Culture Collection (ATCC, Manassas, VA). The A549 (ATCC: CCL-185) lung cancer cell line was grown in F12K media with 10% FBS and 1% penicillin/streptomycin supplementation. Both the U-138 MG (ATCC: HTB-16) glioblastoma cancer cell line and IMR-90 (ATCC: CCL-186) lung fibroblast control cell line were grown in Eagle’s Minimum Essential Medium (EMEM) with supplementation as in A549. Caco-2 (ATCC: HTB-37) colorectal cancer was grown in EMEM with 20% FBS and 1% penicillin/streptomycin. All cell lines were incubated at 37°C in 5% CO2 with passaging every 4–7 days. […]
The MTT (3-(4,5-dimethylthiazol-2-yl)-2,5-diphenyltetrazolium bromide) cellular viability assay was performed in all three cancer cell lines and the non-cancer cell line. […] The MTT assay was run for 2 hours, then well contents were rapidly evacuated out and all wells were treated with MTT solubilization solution [10% Triton X-100 in acidic (0.1N HCl) isopropanol] for 15 minutes before the plates were read using a BioTek Synergy HT microplate plate reader (570 nm and 690 nm absorbance wavelengths). […]
GraphPad Prism v6 (La Jolla, CA) was used for all statistical analysis. Nuclear fraction platinum uptake as a total percent of combined nuclear and cytosolic uptake was analyzed using a one-way ANOVA (Brown-Forsyth test; p ≤ 0.05). […]

Row | Compound | effect on utricle hair cell density compared to vehicle [1] | IC50 [2] | Relative rate (rate constant divided by the rate constant for [Pt(dien)Cl]^+) [3] | Rate constant for the reaction of 5'-GMP with the platinum(II) complex [3] | factor by which cellular viability is reduced more than by pyriplatin [4] | fold reduction in the rate relative to [Pt(dien)Cl]^+ [3] | Rate constant for the reaction of 5'-GMP with the platinum(II) complex ([3]; listed as phenanthriplatin)
1 | [Cl][Pt-2]12[NH2+]CC[NH+]1CC[NH2+]2 (stereo not drawn) [[Pt(dien)Cl]^+, Pt(diethylenetriamine)Cl] | one elevated mean hair cell density count at S2 | 198 ± 4.8 µM | 1 | 3.9 ± 0.1 x 10^−1 M^-1s^-1 and 3.9 (+/- 0.1) x 10^−1 M^-1s^-1 |  |  | 
2 | phenanthriplatin |  |  | 0.041 | 1.63 (+/- .02) x 10^−2 M^-1s^-1 | at least 10 | ~ 25 fold | 1.63 ± 0.02 x 10^-2 M^-1s^-1
